Structure (SMILES) | melting point
NC1CCS(=O)(=O)c2ccc(Cl)cc21 (stereo not given) | 57 to 59 °C
O=C1NC(=O)C(c2ccc(Cl)cc2Cl)N1 (stereo not given) | 179 to 181 °C
O=C(O)CCOc1cccnc1 | 174 to 176 °C
N#Cc1sc2ccccc2c1N | 155 to 157 °C
COC(=O)c1ccc(C=O)[nH]1 | 99 to 101 °C
Fc1ccc(-c2nnc(S)o2)cc1 | 204 to 206 °C
O=C(O)c1ccc(Cl)c(S(=O)(=O)Nc2ccc(Br)cc2)c1 | 225 to 227 °C
Nc1ccc(F)c(NC(=O)Cc2ccccc2)c1 | 180 to 182 °C
CS(=O)(=O)Nc1ccc(Cl)cc1C(=O)O | 199 to 201 °C
Cc1cnc(C#N)c(C)c1 | 58 to 60 °C
Cc1nc2ccccc2n1Cc1cc(N)ccc1Cl | 191 to 193 °C
Sc1ccc(-c2ccccc2)cc1 | 106 to 108 °C
Cc1ccccc1OCCCC(=O)Nc1ccc(CN)cc1 | 82 to 84 °C
Cc1ccc(N)cc1S(N)(=O)=O | 151 to 153 °C
Cc1cc(Cl)nc(-c2ccncc2)n1 | 119 to 121 °C
NC(=O)Cn1cnc([N+](=O)[O-])c1 | 153 to 155 °C
O=C(O)c1ncoc1-c1cccc(F)c1 | 169 to 171 °C
O=C(O)c1ccc(-c2cccs2)[nH]c1=O | 289 to 291 °C
O=C(O)COc1ccc(S(=O)(=O)Cl)cc1F | 131 to 133 °C
NCc1ccccc1CN1C(=O)NC2(CCCCC2)C1=O | 141 to 143 °C
Cc1ccc(C(=O)CC#N)cc1F | 82 to 84 °C
O=C1C=CC(=O)N1c1ccccc1Sc1ccc(Cl)cc1 | 54 to 56 °C
CC(C)(C)OC(=O)NCC1CCCCS1 (stereo not given) | 70 to 72 °C
Nc1cccnc1-n1ccnc1 | 215 to 217 °C
CNS(=O)(=O)c1cccc(N)c1C | 125 to 127 °C

Structure (SMILES) | melting point
CCOc1cc(/C=C/C(=O)O)ccc1OCc1cccnc1 | 201 to 203 °C
CCn1c(Cl)nnc1-c1ccccc1Cl | 123 to 125 °C
NC(=O)CNC(=O)c1cccc(O)c1 | 179 to 181 °C
CSc1cc(Br)ccc1C=O | 81 to 83 °C
Cc1noc2ncnc(N)c12 | 269 to 271 °C
CCOC(=O)c1sc2nc(CN3CCCCC3)nc(Cl)c2c1C | 105 to 107 °C
CC(Nc1ccc(Cl)cc1Cl)C(=O)O (stereo not given) | 146 to 148 °C
CS(=O)(=O)c1ccc(Br)c(C(=O)O)c1 | 203 to 205 °C
O=C(O)C(S)c1ccccc1 (stereo not given) | 58 to 60 °C
Cc1nc(C)c(C)c(O)n1 | 276 to 278 °C
O=[N+]([O-])c1ccc(OCC(F)(F)F)nc1 | 41 to 43 °C
NC(=O)c1ccc(NCC(=O)O)cc1 | 271 to 273 °C
O=C1CC(Cc2ccc(C(=O)O)cc2)C(=O)N1 (stereo not given) | 243 to 245 °C
COc1ccc(Cc2nnc(S)n2N)cc1OC | 177 to 179 °C
Cc1noc(C)c1CCC(=O)O | 109 to 111 °C
O=C(O)c1cc(Cl)c(Cl)[nH]1 | 164 to 166 °C
Cc1ccc2cc(C(=O)O)c(C)nc2c1 | 197 to 199 °C
N#Cc1ncn(CC(=O)O)n1 | 96 to 98 °C
COC(=O)Nc1ccc(Br)cc1 | 122 to 124 °C
O=C(O)CNC(=O)c1ncccc1O | 234 to 236 °C
O=C1Nc2cc(F)c([N+](=O)[O-])cc2C1=O | 236 to 238 °C
COc1ccccc1NC(=O)CC(N)=S | 146 to 148 °C
CC(C)NS(=O)(=O)c1ccc(Cl)c(C(=O)O)c1Cl | 218 to 220 °C
CNc1cc(C#N)c2ccccc2n1 | 166 to 168 °C
COC(=O)c1ccnc(C#N)c1 | 109 to 111 °C

Structure (SMILES) | melting point
Nn1c(S)nnc1-c1ccc(Br)cc1 | 202 to 204 °C
Cc1cc(N)n(-c2cc(C(F)(F)F)ccc2Cl)n1 | 159 to 161 °C
Cc1c(N)cc(C(N)=O)cc1F | 188 to 190 °C
NS(=O)(=O)C(F)F | 59 to 61 °C
CCOC(=O)c1ccc(N2CCNCC2)nc1 | 49 to 51 °C
NC(=O)Cn1cnc(-c2ccccc2)c1N | 209 to 211 °C
O=C(O)CCCc1nc2ccccc2c(=O)[nH]1 | 269 to 271 °C
CC(C)(C)OC(=O)NC1CCCC(C(=O)O)C1 (stereo not given) | 126 to 128 °C
Cc1c(C(=O)O)oc2cc3c(cc12)CCC3 | 265 to 267 °C
CSc1cc(C(=O)O)ccn1 | 218 to 220 °C
O=C(C(=O)N1CCOCC1)N1CCNCC1 | 127 to 129 °C
COc1ccc(CNc2c([N+](=O)[O-])ncn2C)cc1OC | 196 to 198 °C
COc1ccc(C(=O)O)cc1OCCO | 190 to 192 °C
CCn1c(C)nnc1S | 129 to 131 °C
Cn1cc(-c2nc3ccccn3c2N)cn1 | 149 to 151 °C
O=C(O)CNS(=O)(=O)c1ccc2c(c1)COC2 | 219 to 221 °C
O=C(CCl)c1ccc2c(c1)-c1ccccc1C2 | 133 to 135 °C
NC(=S)Cc1cccc(F)c1 | 69 to 71 °C
O=C(O)C1CCCN(C(=O)Cc2ccccc2)C1 (stereo not given) | 112 to 114 °C
O=Cc1ccc(-c2cccnc2)o1 | 104 to 106 °C
C=CCn1c(=S)sc2c(=O)[nH]cnc21 | 216 to 218 °C
O=C(O)c1sccc1S(=O)(=O)N1CCSCC1 | 144 to 146 °C
N#Cc1cnn(-c2ccccc2)c1N | 137 to 139 °C
NNC(=O)Cc1csc(N2CCOCC2)n1 | 168 to 170 °C
CC(=O)c1c[nH]c(C(=O)C(Cl)(Cl)Cl)c1 | 190 to 192 °C

Structure (SMILES) | melting point
CC(C(=O)O)N1CCCCC1=O (stereo not given) | 134 to 136 °C
COCCCOc1cc(C)ccc1C#N | 67 to 69 °C
O=C(CBr)c1ccc(Cl)s1 | 113 to 115 °C
COc1ccc(C(=O)O)cn1 | 172 to 174 °C
O=C(O)CNC(=O)c1cc(Cl)ccn1 | 188 to 190 °C
Clc1nc(C2CC2)nc2scc(-c3ccccc3)c12 | 77 to 79 °C
COc1ccc(-c2cc(CBr)on2)cc1 | 88 to 90 °C
OCc1ccnc(-c2ccccc2)n1 | 43 to 45 °C
Cc1cc(Sc2nccn2C)ccc1N | 101 to 103 °C
Nc1nc2c(F)cc(F)cc2s1 | 197 to 199 °C
Nc1cc(-c2c(F)cc(F)cc2F)no1 | 131 to 133 °C
NC(CN1CCCC1=O)c1ccccc1 (stereo not given) | 99 to 101 °C
CCN(CC)S(=O)(=O)c1ccc(CCC(=O)O)cc1 | 150 to 152 °C
O=C(c1ccccc1)c1ccc(F)cn1 | 42 to 44 °C
CNS(=O)(=O)c1cc(C(=O)O)ccc1Cl | 226 to 228 °C
CCCC(C(=O)O)N1CCN(C(=O)OC(C)(C)C)CC1 (stereo not given) | 149 to 151 °C
NC(=NO)C(c1ccccc1)c1ccccc1 | 124 to 126 °C
NC(=O)C1CCN(S(N)(=O)=O)CC1 | 228 to 230 °C
O=C(O)c1c2c(nc3ccccc13)C(=Cc1ccccc1)CC2 | 279 to 281 °C
O=C1COc2ccc(F)cc21 | 104 to 106 °C
O=C(O)c1cccc(S(=O)(=O)NCc2cccs2)c1 | 223 to 225 °C
O=C(O)c1cccc(CO)c1 | 111 to 113 °C
COc1ccc(CNC(=O)CCl)cc1 | 103 to 105 °C
O=C(O)c1cc(S(=O)(=O)Cl)c(Br)cc1F | 147 to 149 °C
CC(=O)c1ccc(S(=O)(=O)Nc2ccc(C(=O)O)cc2)cc1 | 152 to 154 °C

Structure (SMILES) | melting point
Cc1ccc(S(=O)(=O)NC(C(=O)O)C(C)O)cc1 (stereo not given) | 177 to 179 °C
CC(=O)c1ccc2c(c1)C(C)(C)C(=O)N2 | 187 to 189 °C
CC(C)N(C)S(=O)(=O)c1ccc(N)cc1 | 119 to 121 °C
O=C(O)Cc1csc(-c2ccccc2Cl)n1 | 105 to 109 °C
NCc1ccc(NC(=O)c2ccc(F)cc2)cc1 | 135 to 137 °C
Cc1cc(C)nc(C#N)c1 | 43 to 45 °C
O=C(O)c1ccc(NS(=O)(=O)c2cc(Cl)sc2Cl)cc1 | 189 to 191 °C
Cn1cc(-c2csc(N)n2)cn1 | 230 to 232 °C
Cn1nccc1C1CCNCC1 | 66 to 68 °C
CCC(C)C(NC(=O)c1ccccc1)C(=O)O (stereo not given) | 117 to 119 °C
O=C(O)Cn1cc2ccccc2n1 | 248 to 250 °C
CCOC(=O)/C(C#N)=C/Nc1cc(Cl)ccc1OC | 132 to 134 °C
N#Cc1cc2ccccc2[nH]c1=O | 327 to 329 °C
O=C(NCCO)c1ccn[nH]1 | 169 to 171 °C
NC(=O)Nc1ccc(F)c(Cl)c1 | 166 to 168 °C
CC(=O)Nc1ccc2c(CCl)cc(=O)oc2c1 | 190 to 195 °C
CC(Cl)C(=O)NC1CCOc2ccccc21 (stereo not given) | 129 to 131 °C
O=C(Nc1ccccc1O)C1CC1 | 136 to 138 °C
CC(=O)Nc1cccc2c1CCNC2 | 141 to 143 °C
CC(C)c1nc(CC(=O)O)cs1 | 87 to 89 °C
NC(=O)c1ccc(NCCO)c([N+](=O)[O-])c1 | 218 to 220 °C
CC(C)(C)NC(=O)CC1(C(=O)O)CCCC1 | 201 to 203 °C
C#CCNC(=O)CN1C(=O)C(=O)c2cc(Cl)ccc21 | 267 to 269 °C
CC(C)(C)c1ccc(C2(C(=O)O)CCCC2)cc1 | 189 to 191 °C
CC(N)(C(=O)O)c1cc(F)ccc1F (stereo not given) | 301 to 303 °C

Structure (SMILES) | melting point
CC1Nc2cc(=O)[nH]n2C(C)C1CC(=O)O (stereo not given) | 235 to 237 °C
CC(C)OC(=O)NNC(=O)CCl | 100 to 102 °C
O=C1CCSc2c(Cl)cccc21 | 91 to 93 °C
CC(C(=O)O)c1ccccc1F (stereo not given) | 47 to 49 °C
O=C(NCCCl)C1CCCC1 | 72 to 74 °C
CS(=O)(=O)NCc1ccccc1 | 49 to 51 °C
O=C(O)CCNC(=O)C1CCCCC1 | 125 to 127 °C
CC(C#N)CSc1ccccc1NC(=O)CCl (stereo not given) | 94 to 96 °C
Cc1cc(C(=O)O)ccc1S(N)(=O)=O | 255 to 257 °C
CC(C)(C)n1cc(N)cn1 | 56 to 58 °C
CCc1noc(-c2cc(Cl)ccc2N)n1 | 107 to 109 °C
CS(=O)(=O)CCCC(=O)O | 78 to 80 °C
OCCNc1ccc(-c2ccccc2)nn1 | 162 to 164 °C
O=C(O)c1cn(-c2ccc(Br)cc2C(F)(F)F)nn1 | 139 to 141 °C
O=C(O)c1c(F)ccc(S(=O)(=O)NC2CC2)c1F | 134 to 136 °C
O=C(O)C1CCCN1C(=O)NC1CCCCC1 (stereo not given) | 175 to 177 °C
Nc1cnncc1Cl | 79 to 81 °C
NNC(=O)Cc1cccc(F)c1 | 106 to 108 °C
Cc1noc(C)c1CNC(=O)CCl | 79 to 81 °C
COc1ccc(C(=O)O)cc1S(=O)(=O)NC(C)(C)C | 218 to 220 °C
